“Also recorded” adds a separate entry of the source. Counter-ions that a name gives are not always drawn.
Key:
HeLa cells = assay: PrestoBlue cell viability assay; assay type: cell-based; details: 200 mM vancomycin; 2 and 24 h incubation; hydrochloride
Experimental: HeLa cells were cultured in Dulbecco's Modified Eagle Medium supplemented with 10% fetal bovine serum and 1% penicillin/streptomycin at 37° C. in 5% CO2 in a humidified atmosphere. The cells were seeded to 100% confluence in clear 96-well tissue culture plates (Costar, Corning, N.Y., USA) for 24 h. The cells were then exposed to the different treatments in media and incubated for the specified time. After treatment, the cells were washed in sterile phosphate buffered saline and incubated in 100 μL/well of DMEM (10% FBS, 1% penicillin/streptomycin). Cell viability was evaluated using the PrestoBlue assay (Invitrogen, USA), following the manufacturer's instructions. Briefly, 10 μL of PrestoBlue assay reagent was directly added to each well and the plates were incubated at the cell culture incubator (37° C. and 5% CO2) for 2 h. The absorbance at 570 and 600 nm were then measured using a SpectraMax i3 microplate reader (Molecular Device Inc., Sunnyvale, Calif.). All assays were performed in triplicates.

S. aureus biofilms = assay: Biofilm dispersal assay (crystal violet stain); assay type: cell-based
Experimental: S. aureus were cultured overnight in agar plates or in lysogeny broth (LB) with agitation (200 rpm) at 37° C. Biofilm formation was evaluated under static conditions using 12-well plates (Falcon, USA). Bacterial cultures made overnight were diluted to an OD595 of 0.1 and further diluted 100× (˜10^5 CFU/mL) in modified tryptic soy broth (3% NaCl, 0.5% glucose) and each well was filled with 2 mL of the diluted bacterial solution and incubated at 37° C. for 24 h. Biofilm dispersal activities were evaluated by removing the culture media from the biofilms after 24 h and replacing it with saline solution (0.9% NaCl) containing either individual or a combination of amino acids at the specified concentrations (pH 7.4), or the other antimicrobial agents used in the clinic (vancomycin, bacitracin, NeutroPhase, Hibiclens). After exposure to the different treatment methods, the plates were gently washed with phosphate buffered saline (PBS, 1×) thrice and then stained with 500 μL of 0.1% (w/v) crystal violet for 30 min. The wells were then washed with PBS and the crystal violet stain was solubilized with 30% acetic acid. The solution was diluted 20 times and biofilm biomass was estimated by measuring the crystal violet stained biofilm remnants, which absorbs at 595 nm.

`CN[C@H](CC(C)C)C(=O)N[C@H]1C(=O)N[C@@H](CC(N)=O)C(=O)N[C@H]2C(=O)N[C@H]3C(=O)N[C@H](C(=O)N[C@H](C(=O)O)c4cc(O)cc(O)c4-c4cc3ccc4O)[C@H](O)c3ccc(c(Cl)c3)Oc3cc2cc(c3O[C@@H]2O[C@H](CO)[C@@H](O)[C@H](O)[C@H]2O[C@H]2C[C@](C)(N)[C@H](O)[C@H](C)O2)Oc2ccc(cc2Cl)[C@H]1O` [vancomycin, vancomycin hydrochloride] was tested, and the in vitro cytotoxicity (HeLa cells) was “extremely toxic; also recorded: extreme cell toxicity”, the biofilm disruption (S. aureus biofilms; 200 mM vancomycin, 24 h incubation) was “promising results” and the biofilm disruption (S. aureus biofilms; 2 to 256 ppm, 24 h, preformed biofilms) was “do not disrupt preformed biofilms”.
